Assay results reported in the OPERA property sets (Mansouri et al. 2018).
Values after ≈ are worked out from the molar mass of the structure shown.

solubility (25 °C) [µM]	Compound	other results
–	C#C[C@]1(O)CC[C@H]2[C@@H]3CCc4cc(O)ccc4[C@H]3CC[C@@]21C	solubility (27 °C): 38.1 µM (≈ 11.3 µg/mL)
2160 (≈ 378 µg/mL)	Fc1cccc(Br)c1	–
–	Cc1c2ccccc2cc2c1ccc1ccccc12	solubility (24 °C): 0.0454 µM (≈ 0.011 µg/mL)
2600 (≈ 292 µg/mL)	CCc1cccs1	–

Compound	solubility (25 °C) [µM]	other results
CCOP(=S)(OCC)O/N=C(\C#N)c1ccccc1	17.9 (≈ 5.35 µg/mL)	–
